# Data: the kinase profiling compilation of Christmann-Franck et al. (2016)
# Key:
# Test in all cases: radiometric filter-binding kinase assay
# [1] = tested on: AKT1 (human), P31749 [S473D]
# AURKA (human) = AURKA (human) (UniProt O14965)
# BRSK2 (human) = BRSK2 (human) (UniProt Q8IWQ3)
# CHEK2 (human) = CHEK2 (human) (UniProt O96017)
# CaMK1 (human) = CaMK1 (human) (UniProt Q14012)
# DYRK1A (human) = DYRK1A (human) (UniProt Q13627)
# DYRK2 (human) = DYRK2 (human) (UniProt Q92630)
# EPHB2 (human) = EPHB2 (human) (UniProt P29323)
# Chain of EPHB2 (human) (P29323 whole entry, looked up): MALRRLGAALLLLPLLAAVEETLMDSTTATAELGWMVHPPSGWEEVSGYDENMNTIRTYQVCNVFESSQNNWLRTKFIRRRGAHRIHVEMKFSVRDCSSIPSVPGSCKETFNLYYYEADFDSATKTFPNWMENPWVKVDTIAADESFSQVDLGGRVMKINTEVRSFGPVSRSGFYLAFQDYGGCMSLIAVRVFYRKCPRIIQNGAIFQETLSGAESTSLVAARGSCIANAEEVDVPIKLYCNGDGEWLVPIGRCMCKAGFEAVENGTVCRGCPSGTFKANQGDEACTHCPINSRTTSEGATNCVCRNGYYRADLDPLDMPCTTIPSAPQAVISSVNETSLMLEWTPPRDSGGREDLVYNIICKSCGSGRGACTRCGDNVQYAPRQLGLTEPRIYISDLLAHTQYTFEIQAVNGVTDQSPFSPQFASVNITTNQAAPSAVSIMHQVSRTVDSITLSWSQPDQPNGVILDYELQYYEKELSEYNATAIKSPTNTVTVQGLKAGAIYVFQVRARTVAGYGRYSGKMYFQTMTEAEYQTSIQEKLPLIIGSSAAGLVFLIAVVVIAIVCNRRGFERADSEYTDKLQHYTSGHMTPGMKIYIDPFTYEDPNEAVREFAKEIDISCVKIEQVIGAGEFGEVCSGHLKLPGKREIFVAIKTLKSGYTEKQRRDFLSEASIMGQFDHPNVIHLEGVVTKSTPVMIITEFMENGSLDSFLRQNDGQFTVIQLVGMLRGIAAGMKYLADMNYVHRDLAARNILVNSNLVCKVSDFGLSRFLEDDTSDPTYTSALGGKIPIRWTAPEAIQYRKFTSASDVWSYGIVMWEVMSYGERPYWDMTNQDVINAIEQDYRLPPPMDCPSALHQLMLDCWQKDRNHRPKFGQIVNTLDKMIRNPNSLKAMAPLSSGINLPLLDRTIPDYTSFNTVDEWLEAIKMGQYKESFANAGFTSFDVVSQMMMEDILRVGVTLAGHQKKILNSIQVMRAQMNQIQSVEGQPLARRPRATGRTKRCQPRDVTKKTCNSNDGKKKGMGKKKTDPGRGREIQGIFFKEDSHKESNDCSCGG
# EPHB3 (human) = EPHB3 (human) (UniProt P54753)
# ERBB4 (human) = ERBB4 (human) (UniProt Q15303)
# HIPK2 (human) = HIPK2 (human) (UniProt Q9H2X6)
# IKBKE (human) = IKBKE (human) (UniProt Q14164)
# Chain of IKBKE (human) (Q14164 whole entry, looked up): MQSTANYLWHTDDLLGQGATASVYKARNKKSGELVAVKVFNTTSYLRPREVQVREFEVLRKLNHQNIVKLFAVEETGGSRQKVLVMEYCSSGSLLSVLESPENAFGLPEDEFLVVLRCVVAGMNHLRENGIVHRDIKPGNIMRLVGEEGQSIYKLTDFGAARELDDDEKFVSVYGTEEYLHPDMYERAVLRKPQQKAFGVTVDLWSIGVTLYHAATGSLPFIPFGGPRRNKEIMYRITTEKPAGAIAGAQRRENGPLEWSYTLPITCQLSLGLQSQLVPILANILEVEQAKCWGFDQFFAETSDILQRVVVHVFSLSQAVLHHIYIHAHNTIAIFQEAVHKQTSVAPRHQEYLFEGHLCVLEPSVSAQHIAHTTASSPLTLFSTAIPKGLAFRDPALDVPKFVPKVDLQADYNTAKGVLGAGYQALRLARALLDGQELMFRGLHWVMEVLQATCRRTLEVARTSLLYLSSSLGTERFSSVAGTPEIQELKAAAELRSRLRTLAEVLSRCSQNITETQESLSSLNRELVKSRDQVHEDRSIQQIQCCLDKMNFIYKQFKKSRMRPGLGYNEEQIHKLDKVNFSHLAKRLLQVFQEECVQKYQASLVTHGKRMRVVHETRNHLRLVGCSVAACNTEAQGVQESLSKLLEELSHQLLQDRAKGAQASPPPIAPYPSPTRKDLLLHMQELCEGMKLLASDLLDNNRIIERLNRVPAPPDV
# MAP2K6 (human) = MAP2K6 (human) (UniProt P52564)
# Chain of MAP2K6 (human) (P52564 whole entry, looked up): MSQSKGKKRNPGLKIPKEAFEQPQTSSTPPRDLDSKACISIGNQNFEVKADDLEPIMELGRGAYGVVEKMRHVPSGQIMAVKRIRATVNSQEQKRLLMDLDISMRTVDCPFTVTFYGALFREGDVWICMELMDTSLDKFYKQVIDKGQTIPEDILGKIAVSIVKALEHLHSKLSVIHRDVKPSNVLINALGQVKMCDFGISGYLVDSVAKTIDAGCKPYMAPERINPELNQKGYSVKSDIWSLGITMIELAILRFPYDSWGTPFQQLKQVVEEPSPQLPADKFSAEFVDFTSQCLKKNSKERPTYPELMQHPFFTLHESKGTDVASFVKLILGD
# MAP3K11 (human) = MAP3K11 (human) (UniProt Q16584)
# MAPK1 (human) = MAPK1 (human) (UniProt P28482)
# MAPK10 (human) = MAPK10 (human) (UniProt P53779)
# MAPK12 (human) = MAPK12 (human) (UniProt P53778)
# Chain of MAPK12 (human) (P53778 whole entry, looked up): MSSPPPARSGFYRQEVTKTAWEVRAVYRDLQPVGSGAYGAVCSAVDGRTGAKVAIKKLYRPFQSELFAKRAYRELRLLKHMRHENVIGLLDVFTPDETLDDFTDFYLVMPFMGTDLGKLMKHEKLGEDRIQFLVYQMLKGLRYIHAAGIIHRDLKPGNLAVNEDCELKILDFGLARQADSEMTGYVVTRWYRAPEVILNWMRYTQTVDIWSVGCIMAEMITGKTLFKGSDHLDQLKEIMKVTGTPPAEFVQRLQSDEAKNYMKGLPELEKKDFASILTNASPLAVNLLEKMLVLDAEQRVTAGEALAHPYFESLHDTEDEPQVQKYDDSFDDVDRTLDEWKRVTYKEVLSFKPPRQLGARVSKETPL
# MAPK13 (human) = MAPK13 (human) (UniProt O15264)
# Chain of MAPK13 (human) (O15264 whole entry, looked up): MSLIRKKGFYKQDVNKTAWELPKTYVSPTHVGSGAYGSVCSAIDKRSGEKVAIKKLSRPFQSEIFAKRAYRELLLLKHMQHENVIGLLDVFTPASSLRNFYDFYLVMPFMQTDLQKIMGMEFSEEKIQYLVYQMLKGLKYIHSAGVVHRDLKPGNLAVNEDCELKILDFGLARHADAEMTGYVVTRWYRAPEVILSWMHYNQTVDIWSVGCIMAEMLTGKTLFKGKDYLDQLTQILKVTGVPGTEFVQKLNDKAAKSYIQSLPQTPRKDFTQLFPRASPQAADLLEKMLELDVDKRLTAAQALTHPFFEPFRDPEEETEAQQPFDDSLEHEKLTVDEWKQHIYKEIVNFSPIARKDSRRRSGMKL
# MAPK3 (human) = MAPK3 (human) (UniProt P27361)
# Chain of MAPK3 (human) (P27361 whole entry, looked up): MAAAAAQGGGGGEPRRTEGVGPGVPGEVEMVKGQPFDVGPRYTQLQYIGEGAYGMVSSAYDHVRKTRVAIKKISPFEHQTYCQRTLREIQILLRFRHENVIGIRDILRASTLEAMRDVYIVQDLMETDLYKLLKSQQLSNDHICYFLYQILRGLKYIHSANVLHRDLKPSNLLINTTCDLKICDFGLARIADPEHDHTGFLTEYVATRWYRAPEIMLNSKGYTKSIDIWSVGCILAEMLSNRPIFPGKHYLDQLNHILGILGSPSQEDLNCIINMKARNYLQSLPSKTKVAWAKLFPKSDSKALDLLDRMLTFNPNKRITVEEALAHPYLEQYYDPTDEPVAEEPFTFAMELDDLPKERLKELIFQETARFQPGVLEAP
# MAPK8 (human) = MAPK8 (human) (UniProt P45983)
# Chain of MAPK8 (human) (P45983 whole entry, looked up): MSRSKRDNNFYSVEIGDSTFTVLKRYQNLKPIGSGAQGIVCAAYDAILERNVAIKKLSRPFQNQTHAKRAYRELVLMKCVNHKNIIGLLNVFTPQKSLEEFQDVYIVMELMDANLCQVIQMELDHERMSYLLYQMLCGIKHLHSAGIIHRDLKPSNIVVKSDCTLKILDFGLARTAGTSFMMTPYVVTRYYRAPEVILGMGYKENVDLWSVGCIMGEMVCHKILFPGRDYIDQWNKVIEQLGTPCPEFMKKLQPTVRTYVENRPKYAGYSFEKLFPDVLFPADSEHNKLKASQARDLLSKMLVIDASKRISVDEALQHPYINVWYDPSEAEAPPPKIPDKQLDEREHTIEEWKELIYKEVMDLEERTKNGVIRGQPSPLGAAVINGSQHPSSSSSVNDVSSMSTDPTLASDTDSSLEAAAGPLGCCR
# MAPKAPK3 (human) = MAPKAPK3 (human) (UniProt Q16644)
# MARK2 (human) = MARK2 (human) (UniProt Q7KZI7)
# MKNK1 (human) = MKNK1 (human) (UniProt Q9BUB5)
# MST4 (human) = MST4 (human) (UniProt Q9P289)
# NEK2 (human) = NEK2 (human) (UniProt P51955)
# Chain of NEK2 (human) (P51955 whole entry, looked up): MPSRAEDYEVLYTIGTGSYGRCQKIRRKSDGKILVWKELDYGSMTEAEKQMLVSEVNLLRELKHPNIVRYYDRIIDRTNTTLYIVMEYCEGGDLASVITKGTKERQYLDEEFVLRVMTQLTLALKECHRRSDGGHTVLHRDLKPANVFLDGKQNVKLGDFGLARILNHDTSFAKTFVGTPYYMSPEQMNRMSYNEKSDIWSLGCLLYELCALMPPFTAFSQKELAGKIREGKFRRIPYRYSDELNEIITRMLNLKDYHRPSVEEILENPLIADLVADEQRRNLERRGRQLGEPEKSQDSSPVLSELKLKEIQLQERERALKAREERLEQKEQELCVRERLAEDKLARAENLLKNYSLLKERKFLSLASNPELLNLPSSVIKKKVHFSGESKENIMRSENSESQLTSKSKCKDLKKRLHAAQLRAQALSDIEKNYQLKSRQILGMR
# NUAK1 (human) = NUAK1 (human) (UniProt O60285)
# PAK4 (human) = PAK4 (human) (UniProt O96013)
# PAK7 (human) = PAK7 (human) (UniProt Q9P286)
# PLK1 (human) = PLK1 (human) (UniProt P53350)
# PRKAA1 or PRKAA2 (rat) = details: accession and sequence are those of the human protein
# PRKACA (human) = PRKACA (human) (UniProt P17612)
# PRKCA (human) = PRKCA (human) (UniProt P17252)
# RPS6KA1 KD1 KD2 (human) = RPS6KA1 KD1 KD2 (human) (UniProt Q15418)
# [2] = tested on: SGK1 (human), O00141 [S422D]
# Chain of SGK1 (human), O00141 [S422D] (O00141 whole entry S422D, looked up): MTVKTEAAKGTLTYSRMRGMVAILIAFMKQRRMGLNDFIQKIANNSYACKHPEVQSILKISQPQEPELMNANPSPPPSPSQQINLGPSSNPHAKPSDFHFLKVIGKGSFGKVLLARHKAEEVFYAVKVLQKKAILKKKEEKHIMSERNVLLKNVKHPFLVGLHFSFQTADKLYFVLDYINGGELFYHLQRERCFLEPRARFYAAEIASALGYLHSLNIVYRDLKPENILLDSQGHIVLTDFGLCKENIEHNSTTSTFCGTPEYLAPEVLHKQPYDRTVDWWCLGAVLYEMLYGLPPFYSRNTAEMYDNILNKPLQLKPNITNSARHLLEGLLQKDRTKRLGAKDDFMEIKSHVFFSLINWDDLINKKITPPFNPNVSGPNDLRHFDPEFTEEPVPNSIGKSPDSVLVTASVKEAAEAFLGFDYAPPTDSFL
# SYK (human) = SYK (human) (UniProt P43405)
# Chain of AKT1 (human), P31749 [S473D] (P31749 whole entry S473D, looked up): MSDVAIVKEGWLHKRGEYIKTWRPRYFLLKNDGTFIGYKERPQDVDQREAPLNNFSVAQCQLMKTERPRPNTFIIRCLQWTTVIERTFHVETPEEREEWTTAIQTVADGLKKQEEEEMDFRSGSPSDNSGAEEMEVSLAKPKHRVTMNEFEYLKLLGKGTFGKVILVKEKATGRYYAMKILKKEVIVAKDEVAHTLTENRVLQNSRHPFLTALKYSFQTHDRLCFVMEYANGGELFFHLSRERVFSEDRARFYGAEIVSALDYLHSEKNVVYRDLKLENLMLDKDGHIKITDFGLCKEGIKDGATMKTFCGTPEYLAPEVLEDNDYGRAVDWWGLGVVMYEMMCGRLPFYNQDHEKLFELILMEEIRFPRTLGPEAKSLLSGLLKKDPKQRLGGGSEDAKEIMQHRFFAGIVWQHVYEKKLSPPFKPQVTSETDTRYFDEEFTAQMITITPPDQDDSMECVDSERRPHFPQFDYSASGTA
compound,measurement,setting,value
Cc1ccc(=O)n(-c2ccccc2)c1,residual activity,[1]; compound 1.0 µM,108%
same,residual activity,[1]; compound 10.0 µM,102%
same,residual activity,AURKA (human); compound 1.0 µM,106%
same,residual activity,AURKA (human); compound 10.0 µM,107%
same,residual activity,BRSK2 (human); compound 1.0 µM,106%
same,residual activity,BRSK2 (human); compound 10.0 µM,96%
same,residual activity,CHEK2 (human); compound 1.0 µM,119%
same,residual activity,CHEK2 (human); compound 10.0 µM,97%
same,residual activity,CaMK1 (human); compound 1.0 µM,98%
same,residual activity,CaMK1 (human); compound 10.0 µM,81%
same,residual activity,DYRK1A (human); compound 1.0 µM,103%
same,residual activity,DYRK1A (human); compound 10.0 µM,91%
same,residual activity,DYRK2 (human); compound 1.0 µM,107%
same,residual activity,DYRK2 (human); compound 10.0 µM,98%
same,residual activity,EPHB2 (human); compound 1.0 µM,120%
same,residual activity,EPHB2 (human); compound 10.0 µM,109%
same,residual activity,EPHB3 (human); compound 1.0 µM,96%
same,residual activity,EPHB3 (human); compound 10.0 µM,112%
same,residual activity,ERBB4 (human); compound 10.0 µM,106%
same,residual activity,HIPK2 (human); compound 1.0 µM,122%
same,residual activity,HIPK2 (human); compound 10.0 µM,106%
same,residual activity,IKBKE (human); compound 1.0 µM,104%
same,residual activity,IKBKE (human); compound 10.0 µM,99%
same,residual activity,MAP2K6 (human); compound 1.0 µM,106%
same,residual activity,MAP2K6 (human); compound 10.0 µM,88%
same,residual activity,MAP3K11 (human); compound 1.0 µM,108%
same,residual activity,MAP3K11 (human); compound 10.0 µM,98%
same,residual activity,MAPK1 (human); compound 1.0 µM,95%
same,residual activity,MAPK1 (human); compound 10.0 µM,97%
same,residual activity,MAPK10 (human); compound 1.0 µM,83%
same,residual activity,MAPK10 (human); compound 10.0 µM,86%
same,residual activity,MAPK12 (human); compound 1.0 µM,109%
same,residual activity,MAPK12 (human); compound 10.0 µM,96%
same,residual activity,MAPK13 (human); compound 1.0 µM,97%
same,residual activity,MAPK13 (human); compound 10.0 µM,91%
same,residual activity,MAPK3 (human); compound 1.0 µM,125%
same,residual activity,MAPK3 (human); compound 10.0 µM,115%
same,residual activity,MAPK8 (human); compound 1.0 µM,85%
same,residual activity,MAPK8 (human); compound 10.0 µM,87%
same,residual activity,MAPKAPK3 (human); compound 1.0 µM,92%
same,residual activity,MAPKAPK3 (human); compound 10.0 µM,84%
same,residual activity,MARK2 (human); compound 1.0 µM,104%
same,residual activity,MARK2 (human); compound 10.0 µM,102%
same,residual activity,MKNK1 (human); compound 1.0 µM,101%
same,residual activity,MKNK1 (human); compound 10.0 µM,99%
same,residual activity,MST4 (human); compound 1.0 µM,105%
same,residual activity,MST4 (human); compound 10.0 µM,102%
same,residual activity,NEK2 (human); compound 1.0 µM,107%
same,residual activity,NEK2 (human); compound 10.0 µM,95%
same,residual activity,NUAK1 (human); compound 1.0 µM,115%
same,residual activity,NUAK1 (human); compound 10.0 µM,100%
same,residual activity,PAK4 (human); compound 1.0 µM,101%
same,residual activity,PAK4 (human); compound 10.0 µM,89%
same,residual activity,PAK7 (human); compound 1.0 µM,88%
same,residual activity,PAK7 (human); compound 10.0 µM,96%
same,residual activity,PLK1 (human); compound 1.0 µM,96%
same,residual activity,PLK1 (human); compound 10.0 µM,82%
same,residual activity,PRKAA1 or PRKAA2 (rat); compound 1.0 µM,99%
same,residual activity,PRKAA1 or PRKAA2 (rat); compound 10.0 µM,103%
same,residual activity,PRKACA (human); compound 1.0 µM,90%
same,residual activity,PRKACA (human); compound 10.0 µM,97%
same,residual activity,PRKCA (human); compound 10.0 µM,118%
same,residual activity,RPS6KA1 KD1 KD2 (human); compound 1.0 µM,107%
same,residual activity,RPS6KA1 KD1 KD2 (human); compound 10.0 µM,114%
same,residual activity,[2]; compound 1.0 µM,113%
same,residual activity,[2]; compound 10.0 µM,100%
same,residual activity,SYK (human); compound 1.0 µM,99%
same,residual activity,SYK (human); compound 10.0 µM,103%
COc1ccc(-n2ncc3cnc(Nc4cc(OC)c(OC)c(OCCCN5CCN(C)CC5)c4)nc32)cc1,residual activity,[1]; compound 0.1 µM,99%
same,residual activity,[1]; compound 1.0 µM,89%
same,residual activity,AURKA (human); compound 0.1 µM,18%
same,residual activity,AURKA (human); compound 1.0 µM,3%
same,residual activity,BRSK2 (human); compound 0.1 µM,84%
same,residual activity,BRSK2 (human); compound 1.0 µM,35%
same,residual activity,CHEK2 (human); compound 0.1 µM,48%
same,residual activity,CHEK2 (human); compound 1.0 µM,12%
same,residual activity,CaMK1 (human); compound 0.1 µM,67%
same,residual activity,CaMK1 (human); compound 1.0 µM,26%
same,residual activity,DYRK1A (human); compound 0.1 µM,57%
same,residual activity,DYRK1A (human); compound 1.0 µM,12%
same,residual activity,DYRK2 (human); compound 0.1 µM,50%
same,residual activity,DYRK2 (human); compound 1.0 µM,16%
same,residual activity,EPHB2 (human); compound 0.1 µM,23%
same,residual activity,EPHB2 (human); compound 1.0 µM,6%
same,residual activity,EPHB3 (human); compound 0.1 µM,86%
same,residual activity,EPHB3 (human); compound 1.0 µM,16%
same,residual activity,ERBB4 (human); compound 0.1 µM,60%
same,residual activity,ERBB4 (human); compound 1.0 µM,17%
same,residual activity,HIPK2 (human); compound 0.1 µM,31%
same,residual activity,HIPK2 (human); compound 1.0 µM,10%
same,residual activity,IKBKE (human); compound 0.1 µM,28%
same,residual activity,IKBKE (human); compound 1.0 µM,18%
same,residual activity,MAP2K6 (human); compound 0.1 µM,99%
same,residual activity,MAP2K6 (human); compound 1.0 µM,75%
same,residual activity,MAP3K11 (human); compound 0.1 µM,15%
same,residual activity,MAP3K11 (human); compound 1.0 µM,8%
same,residual activity,MAPK1 (human); compound 0.1 µM,84%
same,residual activity,MAPK1 (human); compound 1.0 µM,57%
same,residual activity,MAPK10 (human); compound 0.1 µM,65%
same,residual activity,MAPK10 (human); compound 1.0 µM,39%
same,residual activity,MAPK12 (human); compound 0.1 µM,113%
same,residual activity,MAPK12 (human); compound 1.0 µM,95%
same,residual activity,MAPK13 (human); compound 1.0 µM,68%
same,residual activity,MAPK3 (human); compound 0.1 µM,111%
same,residual activity,MAPK3 (human); compound 1.0 µM,82%
same,residual activity,MAPK8 (human); compound 0.1 µM,89%
same,residual activity,MAPK8 (human); compound 1.0 µM,38%
same,residual activity,MAPKAPK3 (human); compound 0.1 µM,97%
same,residual activity,MAPKAPK3 (human); compound 1.0 µM,81%
same,residual activity,MARK2 (human); compound 0.1 µM,67%
same,residual activity,MARK2 (human); compound 1.0 µM,28%
same,residual activity,MKNK1 (human); compound 0.1 µM,59%
same,residual activity,MKNK1 (human); compound 1.0 µM,17%
same,residual activity,MST4 (human); compound 0.1 µM,90%
same,residual activity,MST4 (human); compound 1.0 µM,67%
same,residual activity,NEK2 (human); compound 0.1 µM,22%
same,residual activity,NEK2 (human); compound 1.0 µM,3%
same,residual activity,NUAK1 (human); compound 0.1 µM,16%
same,residual activity,NUAK1 (human); compound 1.0 µM,13%
same,residual activity,PAK4 (human); compound 0.1 µM,29%
same,residual activity,PAK4 (human); compound 1.0 µM,9%
same,residual activity,PAK7 (human); compound 0.1 µM,53%
same,residual activity,PAK7 (human); compound 1.0 µM,18%
same,residual activity,PLK1 (human); compound 0.1 µM,90%
same,residual activity,PLK1 (human); compound 1.0 µM,91%
same,residual activity,PRKAA1 or PRKAA2 (rat); compound 0.1 µM,25%
same,residual activity,PRKAA1 or PRKAA2 (rat); compound 1.0 µM,22%
same,residual activity,PRKACA (human); compound 0.1 µM,78%
same,residual activity,PRKACA (human); compound 1.0 µM,26%
same,residual activity,PRKCA (human); compound 0.1 µM,95%
same,residual activity,PRKCA (human); compound 1.0 µM,56%
same,residual activity,RPS6KA1 KD1 KD2 (human); compound 1.0 µM,7%
same,residual activity,[2]; compound 0.1 µM,107%
same,residual activity,[2]; compound 1.0 µM,61%
same,residual activity,SYK (human); compound 0.1 µM,58%
same,residual activity,SYK (human); compound 1.0 µM,13%
